One test has as its target KRas WT (Homo sapiens, UniProt P01116). The test can be described thus: biochemical.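 Further: binding to KRas read as TR-FRET displacement after a one-hour room-temperature incubation, IC50 derived from percent-of-control values.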
The test system of the next test is pERK in PSN1 cells. In words: Inhibition of KRas phosphorylation of ERK (Cisbio HTRF pERK assay). The following applies: Homo sapiens, PSN1, 3 h, read-out: Inhibition (HTRF IC50) of KRas-mediated Phosphorylation of ERK, PSN1.
The test system of a further test is pERK in H727 cells. The description is as above. Particulars: Homo sapiens, NCI-H727, read-out: Inhibition (HTRF IC50) of KRas-mediated Phosphorylation of ERK, H727. (Time-resolved FRET reads energy transfer from a long-lived donor to a nearby acceptor.)
The next test relates to pERK in MKN1 cells. The test is described as above. Particulars: Homo sapiens, MKN-1, 3 h, read-out: Inhibition (HTRF IC50) of KRas-mediated Phosphorylation of ERK, MKN1.
The target of the next test is KRas G12D (Homo sapiens, UniProt P01116, G12D). The test can be described thus: biochemical.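 Further: TR-FRET displacement binding assay on KRas, read after a one-hour incubation at room temperature, IC50 fitted from percent-of-control values.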
The target in another test is KRas G12V (Homo sapiens, UniProt P01116, G12V). In words: biochemical.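 Further: KRas binding measured by TR-FRET displacement at room temperature, IC50 fitted from percent of control values.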
The target of a further test is KRas G12R (Homo sapiens, UniProt P01116, G12R). The test can be described thus: biochemical.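 Further: TR-FRET displacement assay of compound binding to KRas, read after one hour at room temperature, potency from a four-parameter fit of percent-of-control values.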
The next test has as its target KRas G12A (Homo sapiens, UniProt P01116, G12A). In words: biochemical.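 Further: binding to KRas measured by TR-FRET displacement after one hour at room temperature, IC50 from a four-parameter fit of percent-of-control values.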
The next test concerns pERK in HCT116 cells. The test can be described thus: Inhibition of KRas phosphorylation of ERK (Cisbio HTRF pERK assay). The following applies: Homo sapiens, HCT-116, read-out: Inhibition (HTRF IC50) of KRas-mediated Phosphorylation of ERK, HCT116.
The target in another test is KRas G12S (Homo sapiens, UniProt P01116, G12S). The test can be described thus: biochemical.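 Further: TR-FRET displacement binding to KRas, read after one hour incubation at room temperature, IC50 from four-parameter fit of percent of control.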
In the next test the target is KRas G12C (Homo sapiens, UniProt P01116, G12C). The test can be described thus: biochemical.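 Further: binding to KRas assessed by TR-FRET displacement after one hour incubation at room temperature, potency fitted from percent-of-control values.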
For another test, the system named is pERK in ASPC1 cells. In words: Inhibition of KRas phosphorylation of ERK (Cisbio HTRF pERK assay). The following applies: Homo sapiens, ASPC1, read-out: Inhibition (HTRF IC50) of KRas-mediated Phosphorylation of ERK, AsPC-1.

The structures appear in SMILES notation. Bounds are passed on as bounds.

The values that follow come from US12398154B2, “Azaquinazoline pan-KRas inhibitors” (Mirati Therapeutics, Inc., priority 2020, dated 2025).

As a reminder, the IC50 is the point on the concentration scale where inhibition reaches its midpoint.

Sequence of KRas G12C (P01116 1-169 isoform P01116-2 G12C): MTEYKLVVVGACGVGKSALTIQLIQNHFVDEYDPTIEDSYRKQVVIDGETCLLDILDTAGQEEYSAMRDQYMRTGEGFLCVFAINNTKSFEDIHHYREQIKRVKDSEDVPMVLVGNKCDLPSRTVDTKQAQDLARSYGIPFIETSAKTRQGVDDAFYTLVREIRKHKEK
Sequence of KRas G12D (P01116 1-169 isoform P01116-2 G12D): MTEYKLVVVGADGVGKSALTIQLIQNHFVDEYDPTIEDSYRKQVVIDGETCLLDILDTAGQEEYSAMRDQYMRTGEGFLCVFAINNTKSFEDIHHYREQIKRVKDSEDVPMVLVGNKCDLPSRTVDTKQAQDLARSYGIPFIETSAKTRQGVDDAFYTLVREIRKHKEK
Sequence of KRas WT (P01116 1-169 isoform P01116-2): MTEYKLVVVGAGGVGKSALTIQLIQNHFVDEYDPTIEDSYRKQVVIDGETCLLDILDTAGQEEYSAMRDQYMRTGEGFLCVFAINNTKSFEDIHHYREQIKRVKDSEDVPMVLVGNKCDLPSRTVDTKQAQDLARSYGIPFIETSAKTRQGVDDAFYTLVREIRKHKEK
Sequence of KRas G12R (P01116 1-169 isoform P01116-2 G12R): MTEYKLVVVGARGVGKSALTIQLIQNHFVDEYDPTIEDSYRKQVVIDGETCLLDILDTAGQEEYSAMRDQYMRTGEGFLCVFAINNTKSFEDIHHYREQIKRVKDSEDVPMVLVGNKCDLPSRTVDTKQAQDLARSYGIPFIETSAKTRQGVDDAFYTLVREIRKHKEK
Sequence of KRas G12V (P01116 1-169 isoform P01116-2 G12V): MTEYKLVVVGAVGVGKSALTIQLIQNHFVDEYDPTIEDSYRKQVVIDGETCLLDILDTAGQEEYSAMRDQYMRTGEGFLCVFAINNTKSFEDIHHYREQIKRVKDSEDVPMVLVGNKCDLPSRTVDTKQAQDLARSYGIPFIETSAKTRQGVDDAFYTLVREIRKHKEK
Sequence of KRas G12S (P01116 1-169 isoform P01116-2 G12S): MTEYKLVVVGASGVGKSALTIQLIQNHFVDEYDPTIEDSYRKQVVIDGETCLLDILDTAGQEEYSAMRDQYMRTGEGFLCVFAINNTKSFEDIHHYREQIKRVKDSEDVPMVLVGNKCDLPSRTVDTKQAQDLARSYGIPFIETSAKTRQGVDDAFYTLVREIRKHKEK
Sequence of KRas G12A (P01116 1-169 isoform P01116-2 G12A): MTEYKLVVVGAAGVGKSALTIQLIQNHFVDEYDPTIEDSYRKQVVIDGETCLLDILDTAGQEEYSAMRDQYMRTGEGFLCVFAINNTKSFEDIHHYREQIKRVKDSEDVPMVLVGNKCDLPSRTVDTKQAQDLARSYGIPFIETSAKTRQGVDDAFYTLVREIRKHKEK

In the case of `CCc1c(F)ccc2cc(O)cc(-c3ncc4c(N5CCC[C@]6(CC(=O)N6)C5)nc(OCC5(CN6CCCC6)CC5)nc4c3F)c12` [Example 319, (S)-6-(7-(8-ethyl-7-fluoro-3-hydroxynaphthalen-1-yl)-8-fluoro-2-((1-(pyrrolidin-1-ylmethyl)cyclopropyl)methoxy)pyrido[4,3-d]pyrimidin-4-yl)-1,6-diazaspiro[3.5]nonan-2-one], the IC50 at KRas WT is no more than 0.002 µM; with pERK in PSN1 cells, no less than 10 µM; with pERK in H727 cells, 0.808 µM; in the test with pERK in MKN1 cells, 0.12 µM; against KRas G12D, no more than 0.002 µM; against KRas G12V, no more than 0.002 µM. In addition, the half-maximal inhibitory concentration (IC50) against KRas G12R was no more than 0.002 µM; against KRas G12A it was no more than 0.002 µM; in the test on pERK in HCT116 cells, 6.36 µM; on KRas G12S, no more than 0.002 µM; against KRas G12C, no more than 0.002 µM; in the test with pERK in ASPC1 cells, 0.433 µM.

As to `CCc1c(F)ccc2cc(O)cc(-c3ncc4c(N5CCC[C@]6(C5)NC(=O)NC6=O)nc(OCC5(CN6CCCC6)CC5)nc4c3F)c12` [Example 322, (R)-7-(7-(8-ethyl-7-fluoro-3-hydroxynaphthalen-1-yl)-8-fluoro-2-((1-(pyrrolidin-1-ylmethyl)cyclopropyl)methoxy)pyrido[4,3-d]pyrimidin-4-yl)-1,3,7-triazaspiro[4.5]decane-2,4-dione], the IC50 at KRas WT was no more than 0.002 µM; in the test on pERK in PSN1 cells it was 9.09 µM; with pERK in H727 cells, 0.255 µM; in the test on pERK in MKN1 cells it was 0.032 µM; on KRas G12D, no more than 0.002 µM; against KRas G12V, no more than 0.002 µM. In addition, the IC50 is no more than 0.002 µM against KRas G12R, 0.3 µM in the test on pERK in HCT116 cells, no more than 0.002 µM against KRas G12C and 0.484 µM in the test on pERK in ASPC1 cells.

With `C#Cc1c(F)ccc2cc(O)cc(-c3ncc4c(N5CC6C(=O)NC(=O)C6C5)nc(OC[C@@]56CCCN5C[C@H](F)C6)nc4c3F)c12` (stereo partly drawn) [Example 389, 5-(7-(8-ethynyl-7-fluoro-3-hydroxynaphthalen-1-yl)-8-fluoro-2-(((2R,7aS)-2-fluorohexahydro-1H-pyrrolizin-7a-yl)methoxy)pyrido[4,3-d]pyrimidin-4-yl)tetrahydropyrrolo[3,4-c]pyrrole-1,3(2H,3aH)-dione], the half-inhibitory concentration (IC50) is no more than 0.002 µM against KRas WT; no less than 10 µM in the test on pERK in PSN1 cells; 0.97 µM in the test on pERK in H727 cells; 0.095 µM in the test with pERK in MKN1 cells; no more than 0.002 µM against KRas G12D; no more than 0.002 µM against KRas G12V. Besides, the IC50 on KRas G12R was 0.003 µM; at KRas G12A, no more than 0.002 µM; in the test on pERK in HCT116 cells, 1.09 µM; at KRas G12S, no more than 0.002 µM; at KRas G12C, no more than 0.002 µM; in the test on pERK in ASPC1 cells it was 0.268 µM.

`O=C1NC(=O)C2CN(c3nc(OC[C@@]45CCCN4C[C@H](F)C5)nc4c(F)c(-c5cc(O)cc6ccc(F)c(Br)c56)ncc34)CC12` (stereo partly drawn) [Example 404, 5-(7-(8-bromo-7-fluoro-3-hydroxynaphthalen-1-yl)-8-fluoro-2-(((2R,7aS)-2-fluorohexahydro-1H-pyrrolizin-7a-yl)methoxy)pyrido[4,3-d]pyrimidin-4-yl)tetrahydropyrrolo[3,4-c]pyrrole-1,3(2H,3aH)-dione]: the IC50 in the test on pERK in PSN1 cells was no less than 10 µM; in the test with pERK in H727 cells it was 0.822 µM; in the test on pERK in MKN1 cells, 0.055 µM; against KRas G12D it was no more than 0.002 µM; on KRas G12V, no more than 0.002 µM; at KRas G12R, no more than 0.002 µM. Besides, the half-maximal inhibitory concentration (IC50) worked out at 1.38 µM in the test with pERK in HCT116 cells and 0.136 µM with pERK in ASPC1 cells.

Turning to `O=C1NCC2(CCCN(c3nc(OC[C@@]45CCCN4C[C@H](F)C5)nc4c(F)c(-c5cc(O)cc6ccc(F)c(Br)c56)ncc34)C2)N1` (stereo partly drawn) [Example 409, 7-(7-(8-bromo-7-fluoro-3-hydroxynaphthalen-1-yl)-8-fluoro-2-(((2R,7aS)-2-fluorohexahydro-1H-pyrrolizin-7a-yl)methoxy)pyrido[4,3-d]pyrimidin-4-yl)-1,3,7-triazaspiro[4.5]decan-2-one], the IC50 is no less than 10 µM with pERK in PSN1 cells; 0.593 µM in the test with pERK in H727 cells; 0.094 µM with pERK in MKN1 cells; no more than 0.002 µM on KRas G12D; no more than 0.002 µM against KRas G12V; no more than 0.002 µM on KRas G12R. The IC50 in the test on pERK in HCT116 cells was 1.18 µM; in the test on pERK in ASPC1 cells, 0.398 µM.

With `O=C1NC(=O)C2(CCCN(c3nc(OC[C@@]45CCCN4C[C@H](F)C5)nc4c(F)c(-c5cc(O)cc6ccc(F)c(Br)c56)ncc34)C2)N1` (stereo partly drawn) [Example 410, 7-(7-(8-bromo-7-fluoro-3-hydroxynaphthalen-1-yl)-8-fluoro-2-(((2R,7aS)-2-fluorohexahydro-1H-pyrrolizin-7a-yl)methoxy)pyrido[4,3-d]pyrimidin-4-yl)-1,3,7-triazaspiro[4.5]decane-2,4-dione], the half-maximal inhibitory concentration (IC50) with pERK in PSN1 cells is 3.15 µM; in the test with pERK in H727 cells, 0.603 µM; in the test with pERK in MKN1 cells, 0.157 µM; against KRas G12D it was no more than 0.002 µM; on KRas G12V it was no more than 0.002 µM; against KRas G12R it was no more than 0.002 µM. The IC50 in the test with pERK in HCT116 cells was found to be 0.602 µM; with pERK in ASPC1 cells it was 0.365 µM.

Turning to `O=C1NC(=O)[C@]2(CCCN(c3nc(OC[C@@]45CCCN4C[C@H](F)C5)nc4c(F)c(-c5cc(O)cc6ccc(F)c(Cl)c56)ncc34)C2)N1` [Example 413, (R)-7-(7-(8-chloro-7-fluoro-3-hydroxynaphthalen-1-yl)-8-fluoro-2-(((2R,7aS)-2-fluorohexahydro-1H-pyrrolizin-7a-yl)methoxy)pyrido[4,3-d]pyrimidin-4-yl)-1,3,7-triazaspiro[4.5]decane-2,4-dione], the IC50 with pERK in PSN1 cells was 2.53 µM; with pERK in H727 cells, 0.408 µM; in the test on pERK in MKN1 cells, 0.033 µM; at KRas G12D it was no more than 0.002 µM; against KRas G12V, no more than 0.002 µM; on KRas G12R, 0.003 µM. Besides, the figures for the half-inhibitory concentration (IC50) with pERK in HCT116 cells and in the test with pERK in ASPC1 cells were 0.484 µM and 0.479 µM, respectively.

In the case of `NS(=O)(=O)CC1CCCN(c2nc(OC[C@@]34CCCN3C[C@H](F)C4)nc3c(F)c(-c4cc(O)cc5ccc(F)c(Cl)c45)ncc23)C1` (stereo partly drawn) [Example 414, 1-(1-(7-(8-chloro-7-fluoro-3-hydroxynaphthalen-1-yl)-8-fluoro-2-(((2R,7aS)-2-fluorotetrahydro-1H-pyrrolizin-7a(5H)-yl)methoxy)pyrido[4,3-d]pyrimidin-4-yl)piperidin-3-yl)methanesulfonamide], the IC50 in the test on pERK in PSN1 cells is 3.48 µM; with pERK in H727 cells, 0.269 µM; in the test with pERK in MKN1 cells, 0.032 µM; at KRas G12D, no more than 0.002 µM; against KRas G12V, no more than 0.002 µM; against KRas G12R, 0.004 µM. In addition, the IC50 in the test on pERK in HCT116 cells amounted to 0.514 µM; in the test on pERK in ASPC1 cells it was 1.33 µM.

With `O=C1NC[C@]2(CCCN(c3nc(OC[C@@]45CCCN4C[C@H](F)C5)nc4c(F)c(-c5cc(O)cc6ccc(F)c(Cl)c56)ncc34)C2)N1` [Example 415, (S)-7-(7-(8-chloro-7-fluoro-3-hydroxynaphthalen-1-yl)-8-fluoro-2-(((2R,7aS)-2-fluorohexahydro-1H-pyrrolizin-7a-yl)methoxy)pyrido[4,3-d]pyrimidin-4-yl)-1,3,7-triazaspiro[4.5]decan-2-one], the IC50 was no less than 10 µM with pERK in PSN1 cells; 0.903 µM with pERK in H727 cells; 0.046 µM in the test with pERK in MKN1 cells; no more than 0.002 µM against KRas G12D; 0.04 µM at KRas G12V; 0.003 µM on KRas G12R. Moreover, the IC50 with pERK in HCT116 cells was 2.56 µM; with pERK in ASPC1 cells, 0.548 µM.

Regarding `OCC1COCCN(c2nc(OC[C@@]34CCCN3C[C@H](F)C4)nc3c(F)c(-c4cc(O)cc5ccc(F)c(Cl)c45)ncc23)C1` (stereo partly drawn) [Example 420, 5-chloro-6-fluoro-4-(8-fluoro-2-(((2R,7aS)-2-fluorohexahydro-1H-pyrrolizin-7a-yl)methoxy)-4-(6-(hydroxymethyl)-1,4-oxazepan-4-yl)pyrido[4,3-d]pyrimidin-7-yl)naphthalen-2-ol], the IC50 was no less than 10 µM in the test with pERK in PSN1 cells; 0.366 µM in the test on pERK in H727 cells; 0.056 µM in the test with pERK in MKN1 cells; 0.003 µM on KRas G12D; no more than 0.002 µM on KRas G12V; 0.004 µM at KRas G12R. Further, the IC50 with pERK in HCT116 cells turned out to be 1.31 µM; with pERK in ASPC1 cells it was 0.859 µM.

In the case of `Cc1c(F)ccc2cc(O)cc(-c3ncc4c(N5CCCC(CS(N)(=O)=O)C5)nc(OC[C@@]56CCCN5C[C@H](F)C6)nc4c3F)c12` (stereo partly drawn) [Example 461, 1-(1-(8-fluoro-7-(7-fluoro-3-hydroxy-8-methylnaphthalen-1-yl)-2-(((2R,7aS)-2-fluorohexahydro-1H-pyrrolizin-7a-yl)methoxy)pyrido[4,3-d]pyrimidin-4-yl)piperidin-3-yl)methanesulfonamide], the concentration for half-maximal inhibition (IC50) in the test on pERK in PSN1 cells is 3.76 µM; in the test with pERK in H727 cells, 0.239 µM; in the test on pERK in MKN1 cells, 0.018 µM; against KRas G12D, no more than 0.002 µM; against KRas G12V, no more than 0.002 µM; against KRas G12R, no more than 0.002 µM. Further, the values for the IC50 in the test on pERK in HCT116 cells and with pERK in ASPC1 cells were 0.172 µM and 1.15 µM, respectively.
